Patent publication US8865623B2, “Herbicidally active cyclic diones and derivatives thereof, processes for their preparation, compositions, and method of controlling weeds” (Syngenta Limited, priority 2009, dated 2014)

Key:
Type in all cases: in vivo
[1] = tested on: Lolium perenne (LOLPE); experiment: Pre-emergence herbicidal activity, glasshouse pot test; conditions: pre-emergence, evaluated after 13 days; for pest or weed control at 250 g/ha: Lolium perenne, 312 h, Rate 250 g/ha, read-out: Pre-emergence activity LOLPE (100=total damage to plant; 0=no damage to plant); for LOLPE damage to plant (100=total damage to plant; 0=no damage to plant): rate 250 g/ha
Procedure, shortened: (§1)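 Test species are sown in pots of standard soil and sprayed either one day after sowing or after 8 days of cultivation, for pre- and post-emergence respectively. Plants grow in a controlled glasshouse, watered twice daily, and damage is assessed at 13 days, 0 to 100.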

[2] = tested on: Alopecurus myosuroides (ALOMY); experiment: as above; conditions: pre-emergence, evaluated after 13 days; for pest or weed control at 250 g/ha: Alopecurus myosuroides, 312 h, Rate 250 g/ha, read-out: Pre-emergence activity ALOMY (100=total damage to plant; 0=no damage to plant); for ALOMY damage to plant (100=total damage to plant; 0=no damage to plant): rate 250 g/ha
Procedure, shortened: as §1

[3] = tested on: Echinochloa crus-galli (ECHCG); experiment: as above; conditions: pre-emergence, evaluated after 13 days; for pest or weed control at 250 g/ha: Echinochloa crus-galli, 312 h, Rate 250 g/ha, read-out: Pre-emergence activity ECHCG (100=total damage to plant; 0=no damage to plant); for ECHCG damage to plant (100=total damage to plant; 0=no damage to plant): rate 250 g/ha
Procedure, shortened: as §1

[4] = tested on: Avena fatua (AVEFA); experiment: as above; conditions: pre-emergence, evaluated after 13 days; for pest or weed control at 250 g/ha: Avena fatua, 312 h, Rate 250 g/ha, read-out: Pre-emergence activity AVEFA (100=total damage to plant; 0=no damage to plant); for AVEFA damage to plant (100=total damage to plant; 0=no damage to plant): rate 250 g/ha
Procedure, shortened: as §1

[5] = tested on: Lolium perenne (LOLPE); experiment: Post-emergence herbicidal activity, glasshouse pot test; conditions: rate 250 g/ha, evaluated after 13 days; for pest or weed control at 250 g/ha: Lolium perenne, 312 h, read-out: Post-emergence activity LOLPE (100=total damage to plant; 0=no damage to plant)
Procedure, shortened: as §1

[6] = tested on: Alopecurus myosuroides (ALOMY); experiment: as above; conditions: rate 250 g/ha, evaluated after 13 days; for pest or weed control at 250 g/ha: Alopecurus myosuroides, 312 h, read-out: Post-emergence activity ALOMY (100=total damage to plant; 0=no damage to plant)
Procedure, shortened: as §1

[7] = tested on: Echinochloa crus-galli (ECHCG); experiment: as above; conditions: rate 250 g/ha, evaluated after 13 days; for pest or weed control at 250 g/ha: Echinochloa crus-galli, 312 h, read-out: Post-emergence activity ECHCG (100=total damage to plant; 0=no damage to plant)
Procedure, shortened: as §1

[8] = tested on: Avena fatua (AVEFA); experiment: as above; conditions: rate 250 g/ha, evaluated after 13 days; for pest or weed control at 250 g/ha: Avena fatua, 312 h, read-out: Post-emergence activity AVEFA (100=total damage to plant; 0=no damage to plant)
Procedure, shortened: as §1

| Compound | pest or weed control at 250 g/ha [1] [%] | pest or weed control at 250 g/ha [2] [%] | pest or weed control at 250 g/ha [3] [%] | pest or weed control at 250 g/ha [4] [%] | pest or weed control at 250 g/ha [5] [%] | pest or weed control at 250 g/ha [6] [%] | pest or weed control at 250 g/ha [7] [%] | pest or weed control at 250 g/ha [8] [%] | LOLPE damage to plant (100=total damage to plant; 0=no damage to plant) [1] | ALOMY damage to plant (100=total damage to plant; 0=no damage to plant) [2] | ECHCG damage to plant (100=total damage to plant; 0=no damage to plant) [3] | AVEFA damage to plant (100=total damage to plant; 0=no damage to plant) [4] | LOLPE damage to plant (100=total damage to plant; 0=no damage to plant) [5] | ALOMY damage to plant (100=total damage to plant; 0=no damage to plant) [6] | ECHCG damage to plant (100=total damage to plant; 0=no damage to plant) [7] | AVEFA damage to plant (100=total damage to plant; 0=no damage to plant) [8] |
| --- | --- | --- | --- | --- | --- | --- | --- | --- | --- | --- | --- | --- | --- | --- | --- | --- |
| CC1(C)OC(C)(C)C(O)=C(c2cc(Oc3ccc(Br)cc3F)ccc2C2CC2)C1=O [Example A-350] | 100 | 90 | 100 | 50 | 90 | 90 | 100 | 90 | – | – | – | – | – | – | – | – |
| CC1(C)OC(C)(C)C(O)=C(c2cc(Oc3ccc(Br)cc3)ccc2C2CC2)C1=O [Example A-351] | 90 | 60 | 100 | 10 | 100 | 90 | 100 | 10 | – | – | – | – | – | – | – | – |
| CC1(C)OC(C)(C)C(O)=C(c2cc(Oc3ccc(Br)cc3Cl)ccc2C2CC2)C1=O [Example A-352] | 90 | 70 | 100 | 20 | 90 | 90 | 100 | 70 | – | – | – | – | – | – | – | – |
| CC1(C)OC(C)(C)C(O)=C(c2cc(Oc3ccc(F)cc3)ccc2C2CC2)C1=O [Example A-353] | 30 | 0 | 100 | 0 | 50 | 10 | 100 | 10 | – | – | – | – | – | – | – | – |
| CC1(C)OC(C)(C)C(O)=C(c2cc(Oc3ccc(OC(F)(F)F)cc3)ccc2C2CC2)C1=O [Example A-356] | 100 | 90 | 100 | 70 | 100 | 100 | 100 | 100 | – | – | – | – | – | – | – | – |
| CC1(C)OC(C)(C)C(O)=C(c2cc(Oc3cc(C#N)ccc3F)ccc2C2CC2)C1=O [Example A-358] | 90 | 60 | 90 | 0 | 60 | 90 | 100 | 60 | – | – | – | – | – | – | – | – |
| CC1(C)OC(C)(C)C(O)=C(c2cc(Oc3ncc(Cl)cc3Cl)ccc2C2CC2)C1=O [Example A-364] | 90 | 70 | 100 | 60 | 90 | 100 | 100 | 90 | – | – | – | – | – | – | – | – |
| CC1(C)OC(C)(C)C(O)=C(c2cc(Oc3nc4ccccc4s3)ccc2C2CC2)C1=O [Example A-365] | 90 | 80 | 100 | 0 | 100 | 100 | 100 | 10 | – | – | – | – | – | – | – | – |
| CC1(C)OC(C)(C)C(O)=C(c2cc(Oc3nc4ccc(Cl)cc4s3)ccc2C2CC2)C1=O [Example A-366] | 90 | 50 | 90 | 30 | 100 | 100 | 100 | 80 | – | – | – | – | – | – | – | – |
| CC1(C)OC(C)(C)C(O)=C(c2cc(Oc3nc4ccc(C(F)(F)F)cc4s3)ccc2C2CC2)C1=O [Example A-370] | 90 | 50 | 70 | 30 | 80 | 90 | 100 | 100 | – | – | – | – | – | – | – | – |
| CC1(C)OC(C)(C)C(O)=C(c2cc(Oc3cnc4cc(F)ccc4n3)ccc2C2CC2)C1=O [Example A-372] | 100 | 70 | 90 | 90 | 100 | 100 | 100 | 100 | – | – | – | – | – | – | – | – |
| COc1ccc2nc(Oc3ccc(C4CC4)c(C4=C(O)C(C)(C)OC(C)(C)C4=O)c3)sc2c1 [Example A-374] | 100 | 50 | 90 | 30 | 100 | 90 | 100 | 90 | – | – | – | – | – | – | – | – |
| CC1(C)OC(C)(C)C(O)=C(c2cc(Oc3ncc(Cl)cc3C(F)(F)F)ccc2C2CC2)C1=O [Example A-377] | 80 | 70 | 100 | 60 | 100 | 100 | 100 | 100 | – | – | – | – | – | – | – | – |
| CCc1ccc(Oc2ccc(C#N)cc2F)cc1C1=C(OC(C)=O)C(C)(C)OC(C)(C)C1=O [Example P-1] | – | – | – | – | – | – | – | – | 100 | 80 | 100 | 20 | 90 | 80 | 100 | 60 |
| CCC(=O)OC1=C(c2cc(Oc3ccc(C#N)cc3F)ccc2CC)C(=O)C(C)(C)OC1(C)C [Example P-2] | – | – | – | – | – | – | – | – | 100 | 80 | 100 | 70 | 90 | 90 | 100 | 70 |
| CCCC(=O)OC1=C(c2cc(Oc3ccc(C#N)cc3F)ccc2CC)C(=O)C(C)(C)OC1(C)C [Example P-3] | – | – | – | – | – | – | – | – | 100 | 70 | 100 | 70 | 90 | 90 | 100 | 60 |
| CCc1ccc(Oc2ccc(C#N)cc2F)cc1C1=C(OC(=O)OC)C(C)(C)OC(C)(C)C1=O [Example P-4] | – | – | – | – | – | – | – | – | 100 | 80 | 100 | 60 | 90 | 90 | 100 | 60 |
| CCOC(=O)OC1=C(c2cc(Oc3ccc(C#N)cc3F)ccc2CC)C(=O)C(C)(C)OC1(C)C [Example P-5] | – | – | – | – | – | – | – | – | 100 | 100 | 100 | 70 | 80 | 80 | 100 | 70 |
| CCCOC(=O)OC1=C(c2cc(Oc3ccc(C#N)cc3F)ccc2CC)C(=O)C(C)(C)OC1(C)C [Example P-6] | – | – | – | – | – | – | – | – | 90 | 80 | 100 | 20 | 70 | 90 | 90 | 50 |
